In patent US20130184302A1, “METHODS FOR TREATING IRRITABLE BOWEL SYNDROME (IBS) AND INFECTIONS” (priority 2011, published 2013):

Assays:
Type in all cases: in vivo, human
[1] = test system: patients with diarrhea-predominant IBS; test: Tolerability, adverse events, rifaximin 550 mg BID study; conditions: rifaximin 550 mg BID 14 days
subjects with IBS = test: Sustained response and recurrence of symptoms after Primary Evaluation Period, rolling 4 weeks
Description: An evaluation of the enrolled subjects was carried out after the Primary Evaluation Period in the study described in Examples 5-7. […] Subjects with no recurrence are defined as having a stool consistency score of less than 4, abdominal pain reduced by at least 30 percent or both.

subjects with d-IBS = test: Designed study of 14-day oral rifaximin 550 mg TID in d-IBS (Example 2); conditions: oral rifaximin 550 mg TID 14 days
Text: A measure of efficacy is based on subjects' answers to the Weekly Subject Global Assessment (SGA) questions over the 4 week study duration in relation to their IBS symptoms.

[2] = test system: C. difficile infection (CDI); test: CDI trial: enteric symptoms at TOC
Text: Table 41 sets forth a summary of the enteric symptoms at TOC.

[3] = test system: C. difficile infection (CDI); test: CDI trial: efficacy adjusting for concomitant medication usage
Text: Table 48 sets forth the efficacy adjusting for concomitant medication usage.

[4] = test system: C. difficile infection (CDI); test: CDI trial: number of unformed stools during the treatment period
Text: FIG. 18 sets for the average number of unformed stools per day of the study.

[5] = Rolling 2-5 Weeks, First and Second Studies, Rifaximin (N = 624)
[6] = Rolling 3-6 Weeks, First and Second Studies
[7] = Rolling 4-7 Weeks, First and Second Studies
[8] = Rolling 4-7 Weeks, Rifaximin (N = 624)
[9] = Rolling 5-8 Weeks, First and Second Studies
[10] = Rolling 5-8 Weeks, Rifaximin (N = 624)
[11] = Rolling 6-9 Weeks, First and Second Studies
[12] = Rolling 6-9 Weeks, Rifaximin (N = 624)
[13] = Rolling 7-10 Weeks, First and Second Studies
[14] = Rolling 7-10 Weeks, Rifaximin (N = 624)
[15] = Rolling 8-11 Weeks, First and Second Studies
[16] = Rolling 8-11 Weeks, Rifaximin (N = 624)
[17] = Rolling 9-12 Weeks, First and Second Studies
[18] = Rolling 9-12 Weeks, Rifaximin (N = 624)
[19] = Rifaximin N = 108, Vancomycin N = 111
[20] = Rifaximin N = 109, Vancomycin N = 112
[21] = Rifaximin N = 117, Vancomycin N = 115

In the case of `CO[C@H]1/C=C/O[C@@]2(C)Oc3c(C)c(O)c4c(O)c(c5c(nc6cc(C)ccn65)c4c3C2=O)NC(=O)/C(C)=C\C=C\[C@H](C)[C@H](O)[C@@H](C)[C@@H](O)[C@@H](C)[C@H](OC(C)=O)[C@@H]1C` [Rifaximin, (2S,16Z,18E,20S,21S,22R, 23R,24R,25S,26S,27S,28E)-5,6,21,23,25 Pentahydroxy-27-methoxy-2,4,11,16,20,22,24,26-octamethyl-2,7-(epoxypentadeca-(1,11,13)trienimino) benzofuro (4,5-e) pyrido(1,2,-a) benzimidazole-1,15(2H)-dione,25-acetate], the “Tolerability, incidence of adverse events compared with placebo” value [1] is reported as “well tolerated”, the “Abdominal Pain or Stool Consistency: Sustained Durable Response” value (subjects with IBS; First and Second Studies, Rifaximin (N = 624)) is reported as “(28.8%)” and the “Abdominal Pain & Stool Consistency: Sustained Durable Response” value (subjects with IBS; Rifaximin (N = 624)) is reported as “(33.2%)”. For the same molecule, the “Abdominal Pain: Sustained Durable Response” value (subjects with IBS; Rifaximin (N = 624)) was “(35.7%)”, the “Stool Consistency: Sustained Durable Response” value (subjects with IBS; Rifaximin (N = 624)) was “(68.9%)” and the “Abdominal Pain or Stool Consistency: No Recurrence” value (subjects with IBS; [5]) was “(45.8%)”. The “Abdominal Pain or Stool Consistency: Recurrence” value (subjects with IBS; [5]) was “(1.9%)”, the “Abdominal Pain or Stool Consistency: No Recurrence” value (subjects with IBS; [6]) was “(43.9%)” and the “Abdominal Pain or Stool Consistency: Recurrence” value (subjects with IBS; [6]) was “(3.7%)”. For the same molecule, the “Abdominal Pain or Stool Consistency: No Recurrence” value (subjects with IBS; [7]) was “(40.2%)”, the “Abdominal Pain or Stool Consistency: Recurrence” value (subjects with IBS; [7]) was “(2.7%)” and the “Abdominal Pain & Stool Consistency: No Recurrence” value (subjects with IBS; [8]) was “(48.2%)”. The “Abdominal Pain & Stool Consistency: Recurrence” value (subjects with IBS; [8]) was “(3.7%)”, the “Abdominal Pain: No Recurrence” value (subjects with IBS; [8]) was “(51.9%)” and the “Abdominal Pain: Recurrence” value (subjects with IBS; [8]) was “(3.8%)”. For the same molecule, the “Stool Consistency: No Recurrence” value (subjects with IBS; [8]) was “(78.8%)”, the “Stool Consistency: Recurrence” value (subjects with IBS; [8]) was “(1.3%)” and the “Abdominal Pain or Stool Consistency: No Recurrence” value (subjects with IBS; [9]) was “(37.5%)”. The “Abdominal Pain or Stool Consistency: Recurrence” value (subjects with IBS; [9]) was “(2.6%)”, the “Abdominal Pain & Stool Consistency: No Recurrence” value (subjects with IBS; [10]) was “(44.6%)” and the “Abdominal Pain & Stool Consistency: Recurrence” value (subjects with IBS; [10]) was “(3.2%)”. For the same molecule, the “Abdominal Pain: No Recurrence” value (subjects with IBS; [10]) was “(48.1%)”, the “Abdominal Pain: Recurrence” value (subjects with IBS; [10]) was “(3.0%)” and the “Stool Consistency: No Recurrence” value (subjects with IBS; [10]) was “(77.6%)”. For the same molecule, the “Stool Consistency: Recurrence” value (subjects with IBS; [10]) was “(2.1%)”, the “Abdominal Pain or Stool Consistency: No Recurrence” value (subjects with IBS; [11]) was “(34.9%)” and the “Abdominal Pain or Stool Consistency: Recurrence” value (subjects with IBS; [11]) was “(1.6%)”. For the same molecule, the “Abdominal Pain & Stool Consistency: No Recurrence” value (subjects with IBS; [12]) was “(41.3%)”, the “Abdominal Pain & Stool Consistency: Recurrence” value (subjects with IBS; [12]) was “(2.2%)” and the “Abdominal Pain: No Recurrence” value (subjects with IBS; [12]) was “(45.0%)”. The “Abdominal Pain: Recurrence” value (subjects with IBS; [12]) was “(2.4%)”, the “Stool Consistency: No Recurrence” value (subjects with IBS; [12]) was “(75.5%)” and the “Stool Consistency: Recurrence” value (subjects with IBS; [12]) was “(2.6%)”. For the same molecule, the “Abdominal Pain or Stool Consistency: No Recurrence” value (subjects with IBS; [13]) was “(33.3%)”, the “Abdominal Pain or Stool Consistency: Recurrence” value (subjects with IBS; [13]) was “(1.6%)” and the “Abdominal Pain & Stool Consistency: No Recurrence” value (subjects with IBS; [14]) was “(39.1%)”. The “Abdominal Pain & Stool Consistency: Recurrence” value (subjects with IBS; [14]) was “(1.8%)”, the “Abdominal Pain: No Recurrence” value (subjects with IBS; [14]) was “(42.6%)” and the “Abdominal Pain: Recurrence” value (subjects with IBS; [14]) was “(2.4%)”. For the same molecule, the “Stool Consistency: No Recurrence” value (subjects with IBS; [14]) was “(72.9%)”, the “Stool Consistency: Recurrence” value (subjects with IBS; [14]) was “(1.4%)” and the “Abdominal Pain or Stool Consistency: No Recurrence” value (subjects with IBS; [15]) was “(31.7%)”. For the same molecule, the “Abdominal Pain or Stool Consistency: Recurrence” value (subjects with IBS; [15]) was “(1.3%)”, the “Abdominal Pain & Stool Consistency: No Recurrence” value (subjects with IBS; [16]) was “(37.3%)” and the “Abdominal Pain & Stool Consistency: Recurrence” value (subjects with IBS; [16]) was “(2.2%)”. For the same molecule, the “Abdominal Pain: No Recurrence” value (subjects with IBS; [16]) was “(40.2%)”, the “Abdominal Pain: Recurrence” value (subjects with IBS; [16]) was “(2.2%)” and the “Stool Consistency: No Recurrence” value (subjects with IBS; [16]) was “(71.5%)”. The “Stool Consistency: Recurrence” value (subjects with IBS; [16]) was “(0.5%)”, the “Abdominal Pain or Stool Consistency: No Recurrence” value (subjects with IBS; [17]) was “(30.4%)” and the “Abdominal Pain or Stool Consistency: Recurrence” value (subjects with IBS; [17]) was “(1.6%)”. For the same molecule, the “Abdominal Pain & Stool Consistency: No Recurrence” value (subjects with IBS; [18]) was “(35.1%)”, the “Abdominal Pain & Stool Consistency: Recurrence” value (subjects with IBS; [18]) was “(1.9%)” and the “Abdominal Pain: No Recurrence” value (subjects with IBS; [18]) was “(38.0%)”. For the same molecule, the “Abdominal Pain: Recurrence” value (subjects with IBS; [18]) was “(2.2%)”, the “Stool Consistency: No Recurrence” value (subjects with IBS; [18]) was “(71.0%)” and the “Stool Consistency: Recurrence” value (subjects with IBS; [18]) was “(2.1%)”. For the same molecule, the “Answers to weekly SGA question on adequate relief of IBS symptom of bloating” value (subjects with d-IBS) was “respond “Yes” more often”, the “Answers to weekly SGA question on adequate relief of IBS symptoms” value (subjects with d-IBS) was “respond “Yes” more often” and the “Diarrhea: No, number of subjects” value [2, 19] was 86. For the same molecule, the “Diarrhea: No, percent of subjects” value [2, 19] was “(80%)”, the “Diarrhea: Yes, number of subjects” value [2, 19] was 22 and the “Diarrhea: Yes, percent of subjects” value [2, 19] was “(20%)”. The “Fever: No, number of subjects” value [2, 19] was 98, the “Fever: No, percent of subjects” value [2, 19] was “(91%)” and the “Fever: Yes, number of subjects” value [2, 19] was 10. For the same molecule, the “Fever: Yes, percent of subjects” value [2, 19] was “(9%)”, the “Severe Abdominal Pain/Discomfort: No, number of subjects” value [2, 19] was 80 and the “Severe Abdominal Pain/Discomfort: No, percent of subjects” value [2, 19] was “(74%)”. For the same molecule, the “Severe Abdominal Pain/Discomfort: Yes, number of subjects” value [2, 19] was 28, the “Severe Abdominal Pain/Discomfort: Yes, percent of subjects” value [2, 19] was “(26%)” and the “Diarrhea: Treatment Difference” value ([2]; Rifaximin vs Vancomycin) was −1.5%. The “Fever: Treatment Difference” value ([2]; Rifaximin vs Vancomycin) was −7.5%, the “Severe Abdominal Pain/Discomfort: Treatment Difference” value ([2]; Rifaximin vs Vancomycin) was −11.5% and the “Diarrhea: No, number of subjects” value [3, 20] was 71. For the same molecule, the “Diarrhea: No, percent of subjects” value [3, 20] was “(65%)”, the “Diarrhea: Yes, number of subjects” value [3, 20] was 38 and the “Diarrhea: Yes, percent of subjects” value [3, 20] was “(35%)”. For the same molecule, the “Clinical Success: No, number of subjects” value [3, 21] was 59, the “Clinical Success: No, percent of subjects” value [3, 21] was “(50%)” and the “Clinical Success: Yes, number of subjects” value [3, 21] was 58. The “Clinical Success: Yes, percent of subjects” value [3, 21] was “(50%)”, the “Clinical Success: Treatment Difference” value ([3]; Rifaximin vs Vancomycin) was −10.4% and the “Diarrhea: Treatment Difference” value ([3]; Rifaximin vs Vancomycin) was −8.1%. For the same molecule, the “Adjusted mean number of unformed stools-ANOVA: Treatment Difference (95% CI)” value ([4]; Rifaximin vs Vancomycin, treatment period) was 0.46 (−0.08, 1.00), the “Overall treatment difference in number of unformed stools-Mixed Model: Treatment Difference (95% CI)” value ([4]; Rifaximin vs Vancomycin, mixed effects model with treatment, center, study day as fixed effects) was 0.32 (−0.08, 0.72) and the “Adjusted mean number of unformed stools-ANOVA” value ([4]; during the treatment period, ANOVA model with treatment and center as main effects, Rifaximin N = 117, Vancomycin N = 115) was 2.36.
